Active and inactive are the calls of the source. The calls are words filed in the database; no cut-off is given here.
Columns and labels:
MOLT-4 [1] = assay: Radioprotective activity in gamma-irradiated human MOLT-4 cells assessed as reduction in p53 expression at 3 to 100 uM preincubated for 1 hr followed by 10 Gy 137Cs gamma-ray exposure and measured after 6 hrs by Western blot analysis; format: functional, cell-based; conditions: dose 3-100 µM, time 7.0 hrs
MOLT-4 [2] = assay: Cytotoxicity against human MOLT-4 cells assessed as reduction in cell viability at 80 uM measured after 1 hr by erythrosin B staining based dye exclusion assay; format: toxicity; conditions: molt-4, 1 h
[3] = biological target: Cellular tumor antigen p53 (Homo sapiens) (UniProt P04637); assay: Inhibition of p53 in human MOLT-4 cells assessed as suppression of gamma-irradiation-induced decrease in cell viability at 20 uM preincubated for 1 hr followed by 10 Gy 137Cs gamma-ray exposure and measured after 27 hrs by erythrosin B staining based dye exclusion assay; conditions: time 28.0 hrs
MOLT-4 [4] = assay: Cytotoxicity against human MOLT-4 cells assessed as reduction in cell viability measured after 1 hr by erythrosin B staining based dye exclusion assay; format: toxicity; conditions: molt-4, 1 h
[5] = biological target: Cellular tumor antigen p53 (Homo sapiens) (UniProt P04637); assay: Inhibition of p53 in human MOLT-4 cells assessed as suppression of gamma-irradiation-induced decrease in cell viability at 20 to 100 uM preincubated for 1 hr followed by 10 Gy 137Cs gamma-ray exposure and measured after 27 hrs by erythrosin B staining based dye exclusion assay; conditions: dose 20-100 µM, time 28.0 hrs
[6] = biological target: Cellular tumor antigen p53 (Homo sapiens) (UniProt P04637); assay: Inhibition of p53 in human MOLT-4 cells assessed as suppression of gamma-irradiation-induced decrease in cell viability at 50 to 100 uM preincubated for 1 hr followed by 10 Gy 137Cs gamma-ray exposure and measured after 27 hrs by erythrosin B staining based dye exclusion assay; conditions: dose 50-100 µM, time 28.0 hrs
MOLT-4 [7] = assay: Cytotoxicity against human MOLT-4 cells assessed as reduction in cell viability at 10 to 20 uM measured after 1 hr by erythrosin B staining based dye exclusion assay; format: toxicity; conditions: molt-4, 1 h, dose 10-20 µM
MOLT-4 [8] = assay: Cytotoxicity against human MOLT-4 cells assessed as reduction in cell viability at 40 uM measured after 1 hr by erythrosin B staining based dye exclusion assay; format: toxicity; conditions: molt-4, 1 h
[9] = biological target: Cellular tumor antigen p53 (Homo sapiens) (UniProt P04637); assay: Inhibition of p53 in human MOLT-4 cells assessed as suppression of gamma-irradiation-induced decrease in cell viability at 40 uM preincubated for 1 hr followed by 10 Gy 137Cs gamma-ray exposure and measured after 27 hrs by erythrosin B staining based dye exclusion assay; conditions: time 28.0 hrs

Chain of Cellular tumor antigen p53 (Homo sapiens) (P04637 whole entry, looked up): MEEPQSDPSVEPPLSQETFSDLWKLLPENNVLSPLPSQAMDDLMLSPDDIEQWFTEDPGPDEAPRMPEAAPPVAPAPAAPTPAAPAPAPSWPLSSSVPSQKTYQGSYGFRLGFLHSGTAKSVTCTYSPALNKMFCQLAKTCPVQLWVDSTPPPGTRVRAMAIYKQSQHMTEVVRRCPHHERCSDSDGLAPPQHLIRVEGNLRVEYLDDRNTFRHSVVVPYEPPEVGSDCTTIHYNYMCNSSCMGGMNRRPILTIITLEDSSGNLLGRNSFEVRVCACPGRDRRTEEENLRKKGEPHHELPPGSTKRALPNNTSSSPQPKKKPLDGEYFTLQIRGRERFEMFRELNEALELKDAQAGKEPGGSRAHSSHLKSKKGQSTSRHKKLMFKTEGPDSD

SMILES | Activity (MOLT-4 [4]) | inhibition [5] | also measured
COC(=O)C1=C(C)N(c2cccc(OC)c2)C(=O)/C1=C\c1ccc(C(=O)O)cc1 |  |  | Activity (MOLT-4 [1]): Active; Activity (MOLT-4 [2]): Toxic; inhibition [3]: Active
COC(=O)C1=C(C)N(c2cccc(OC)c2)C(=O)/C1=C\c1ccc(S(N)(=O)=O)cc1 | Toxic |  | 
COC(=O)C1=C(C)N(c2cccc(OC)c2)C(=O)/C1=C\c1ccncc1 | Toxic |  | 
CCCCCCOC(=O)C1=C(C)N(c2cccc(OC)c2)C(=O)/C1=C\c1ccc(C(=O)O)cc1 | Toxic |  | 
COC(=O)C1=C(C)N(c2cccc(OC)c2)C(=O)/C1=C\c1ccccc1S(=O)(=O)[O-].[Na+] | Non-Toxic |  | 
COC(=O)C1=C(C)N(c2cccc(OC)c2)C(=O)/C1=C/c1ccc(C(=O)O)cc1 |  | Active | 
COC(=O)C1=C(C)N(c2ccccc2)C(=O)/C1=C\c1ccc(C(=O)O)cc1 |  | Active | 
CCOC(=O)C1=C(C)N(c2cccc(OC)c2)C(=O)/C1=C\c1ccc(C(=O)O)cc1 |  | Active | 
COC(=O)C1=C(C)N(c2cccc(OC)c2)C(=O)/C1=C\c1ccncc1O | Toxic |  | 
COC(=O)C1=C(C)N(c2cccc(OC)c2)C(=O)/C1=C\c1ccc(OC)cc1 | Toxic |  | 
CCCCCCOc1cccc(N2C(=O)/C(=C\c3ccc(C(=O)O)cc3)C(C(=O)OC)=C2C)c1 | Toxic |  | 
COC(=O)C1=C(C)N(c2cccc(OC)c2)C(=O)C1=Cc1ccc(C(=O)O)cc1 |  | Active | 
COC(=O)C1=C(C)N(c2cccc(OC)c2)C(=O)/C1=C\c1cccc(C(=O)O)c1 |  | Active | 
CCOC(=O)c1ccc(/C=C2\C(=O)N(c3cccc(OC)c3)C(C)=C2C(=O)OC)cc1 | Toxic |  | 
COC(=O)C1=C(C)N(c2cccc(OC)c2)C(=O)/C1=C\c1ccc(-c2nnn[nH]2)cc1 |  | Active | Activity (MOLT-4 [1]): Active
COc1cccc(N2C(=O)/C(=C\c3ccc(C(=O)O)cc3)C(C(=O)OC(C)(C)C)=C2C)c1 | Toxic |  | 
COC(=O)C1=C(C)N(c2ccc(OC)cc2)C(=O)/C1=C\c1ccc(C(=O)O)cc1 |  | Active | 
COC(=O)C1=C(C)N(c2cccc(OC)c2)C(=O)/C1=C\c1ccc(Cl)cc1 | Toxic |  | 
COC(=O)C1=C(C)N(c2ccccc2OC)C(=O)/C1=C\c1ccc(C(=O)O)cc1 |  | Active | 
COC(=O)C1=C(C)N(c2cccc(OC)c2)C(=O)/C1=C\c1ccc([N+](=O)[O-])cc1 | Toxic |  | 
CNC(=O)C1=C(C)N(c2cccc(OC)c2)C(=O)/C1=C\c1ccc(C(=O)O)cc1 |  |  | inhibition [6]: Active
COC(=O)C1=C(C)N(c2cccc(OC(C)C)c2)C(=O)/C1=C\c1ccc(C(=O)O)cc1 |  |  | Activity (MOLT-4 [1]): Active; Activity (MOLT-4 [2]): Toxic; inhibition [3]: Active
COC(=O)C1=C(C)N(c2cccc(O)c2)C(=O)/C1=C\c1ccc(C(=O)O)cc1 |  |  | inhibition [6]: Active
COC(=O)C1=C(C)N(c2cccc(OC)c2)C(=O)/C1=C\c1ccc(C(=O)NO)cc1 |  |  | Activity (MOLT-4 [7]): Toxic; Activity (MOLT-4 [8]): Non-Toxic; inhibition [9]: Active
COC(=O)C1=C(C)N(c2cccc(OC)c2)C(=O)/C1=C\c1cncnc1 | Toxic |  | 
